Where two headings read alike, the source gives them in different places.
What was measured:
GM1 production = assay: cells; type: cell-based
[1] = molecular target: glucosylceramide synthase (GCS) (Homo sapiens (Human), UniProt Q16739); assay: Evaluation of inhibitory activities against GCS (enzyme reaction with A549 cell lysate, NBD C6-ceramide, HPLC fluorescence); type: biochemical; conditions: GCS activity in A549 cell lysate, 37° C. for 90 minutes
Outline: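 Lysate of A549 cells in 50 mM HEPES pH 7.3 incubated with test compound and NBD C6-ceramide at 37 °C for 90 min; lipids extracted with chloroform/methanol and GlcCer and ceramide peaks quantified by HPLC fluorescence. Activity from GlcCer area fraction, normalised between DMSO and ibiglustat controls.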

Sequence of glucosylceramide synthase (GCS) (Q16739 whole entry, looked up): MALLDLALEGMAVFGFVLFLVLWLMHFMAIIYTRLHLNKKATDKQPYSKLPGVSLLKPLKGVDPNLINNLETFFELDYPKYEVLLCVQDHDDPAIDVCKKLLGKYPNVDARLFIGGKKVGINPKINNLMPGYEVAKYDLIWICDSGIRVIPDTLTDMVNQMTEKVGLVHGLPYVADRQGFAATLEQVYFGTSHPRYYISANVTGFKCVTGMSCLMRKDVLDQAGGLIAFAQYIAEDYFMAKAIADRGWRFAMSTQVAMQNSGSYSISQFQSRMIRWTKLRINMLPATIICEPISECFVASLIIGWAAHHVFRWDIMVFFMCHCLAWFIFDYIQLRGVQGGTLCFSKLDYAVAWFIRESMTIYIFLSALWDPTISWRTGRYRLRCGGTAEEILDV

Row | Compound | IC50 (GM1 production; Homo sapiens, Jurkat, 72 h) | IC50 [1] | IC50 (GM1 production; read-out: IC50)
1 | O=C(NC1CCCc2cc(-c3ccc(OC(F)F)cc3)ccc21)O[C@@H]1CN2CCC1CC2 (stereo partly drawn) [Example 13, (S)-quinuclidin-3-yl (6-(4-(difluoromethoxy)phenyl)-1,2,3,4-tetrahydronaphthalen-1-yl)carbamate] | 143 nM | 23.5 nM | –
2 | COc1ccc(-c2ccc3c(c2)CCC(C)(C)C3NC(=O)O[C@@H]2CN3CCC2CC3)cc1 (stereo partly drawn) [Example 120, (S)-quinuclidin-3-yl (6-(4-methoxyphenyl)-2,2-dimethyl-1,2,3,4-tetrahydronaphthalen-1-yl)carbamate] | 1.83 nM | 5.65 nM | –
3 | COCCOc1ccccc1-c1ccc2c(c1)CCC(C)(C)C2NC(=O)O[C@@H]1CN2CCC1CC2 (stereo partly drawn) [Example 112, (S)-quinuclidin-3-yl (6-(2-(2-methoxyethoxy)phenyl)-2,2-dimethyl-1,2,3,4-tetrahydronaphthalen-1-yl)carbamate] | 0.802 nM | 3.75 nM | –
4 | COc1ccc(-c2cc3c(cc2F)C(NC(=O)O[C@@H]2CN4CCC2CC4)C(C)(C)CC3)cc1F (stereo partly drawn) [Example 227, (S)-quinuclidin-3-yl (7-fluoro-6-(3-fluoro-4-methoxyphenyll)-2,2-dimethyl-1,2,3,4-tetrahydronaphthalen-1-yl)carbamate] | – | 0.5 nM | 12.8 nM
5 | (S)-quinuclidin-3-yl (2,2-dimethyl-7-(2-(p-tolyl)-1,2,3,4-tetrahydronaphthalen-1-yl)carbamate [Example 163] | – | 15.3 nM | 55.1 nM
6 | CCCc1ccc(-c2ccc3c(c2)CCC2(CC2)C3NC(=O)O[C@@H]2CN3CCC2CC3)cc1 (stereo partly drawn) [Example 222, (S)-quinuclidin-3-yl (6′-(4-propylphenyl)-3′,4′-dihydro-1′H-spiro[cyclopropane-1,2′-naphthalen]-1′-yl)carbamate] | 9.3 nM | 0.75 nM | –
7 | O=C(NC1CCCc2cc(-c3ccc(N4CCOCC4)cc3)ccc21)O[C@@H]1CN2CCC1CC2 (stereo partly drawn) [Example 45, (S)-quinuclidin-3-yl (6-(4-morpholinophenyl)-1,2,3,4-tetrahydronaphthalen-1-yl)carbamate] | 152 nM | 21.3 nM | –
8 | COc1ccc(-c2ccc3c(c2)CCC(C)(C)C3NC(=O)O[C@@H]2CN3CCC2CC3)cc1F (stereo partly drawn) [Example 126, (S)-quinuclidin-3-yl (6-(3-fluoro-4-methoxyphenyl)-2,2-dimethyl-1,2,3,4-tetrahydronaphthalen-1-yl)carbamate] | 1.89 nM | 0.83 nM | –
9 | O=C(NC1CCCc2ccc(-c3ccc(Cl)c(Cl)c3)cc21)O[C@@H]1CN2CCC1CC2 (stereo partly drawn) [Example 70, (S)-quinuclidin-3-yl (7-(3,4-dichlorophenyl)-1,2,3,4-tetrahydronaphthalen-1-yl)carbamate] | 133 nM | 83.9 nM | –
10 | CC1(C)CCc2cc(-c3cc(F)c(F)cc3F)ccc2C1NC(=O)O[C@@H]1CN2CCC1CC2 (stereo partly drawn) [Example 108, (S)-quinuclidin-3-yl (2,2-dimethyl-6-(2,4,5-trifluorophenyl)-1,2,3,4-tetrahydronaphthalen-1-yl)carbamate] | 6.7 nM | 2.55 nM | –
11 | COc1cccc(-c2ccc3c(c2)CCCC3NC(=O)O[C@@H]2CN3CCC2CC3)c1 (stereo partly drawn) [Example 47, (S)-quinuclidin-3-yl (6-(3-methoxyphenyl)-1,2,3,4-tetrahydronaphthalen-1-yl)carbamate] | 433 nM | 2.52 nM | –
12 | O=C(NC1CCCc2cc(-c3cccc(F)c3)ccc21)O[C@@H]1CN2CCC1CC2 (stereo partly drawn) [Example 5, (S)-quinuclidin-3-yl (6-(3-fluorophenyl)-1,2,3,4-tetrahydronaphthalen-1-yl)carbamate] | 27.1 nM | 0.989 nM | –
13 | O=C(NC1c2ccc(-c3cccc(F)c3)cc2CCC12CC2)O[C@@H]1CN2CCC1CC2 (stereo partly drawn) [Example 190, (S)-quinuclidin-3-yl (6′-(3-fluorophenyl)-3′,4′-dihydro-1′H-spiro[cyclopropane-1,2′-naphthalen]-1′-yl)carbamate] | 19.9 nM | 11.9 nM | –
14 | O=C(NC1CCCc2cc(-c3ccc(OC(F)(F)F)cc3)ccc21)O[C@@H]1CN2CCC1CC2 (stereo partly drawn) [Example 4, (S)-quinuclidin-3-yl (6-(4-(trifluoromethoxy)phenyl)-1,2,3,4-tetrahydronaphthalen-1-yl)carbamate] | 34.9 nM | 1.42 nM | –
15 | COc1ccc(-c2ccc3c(c2)CCCC3NC(=O)O[C@@H]2CN3CCC2CC3)cc1 (stereo partly drawn) [Example 46, (S)-quinuclidin-3-yl (6-(4-methoxyphenyl)-1,2,3,4-tetrahydronaphthalen-1-yl)carbamate] | 216 nM | 13 nM | –
16 | COc1cccc(OC)c1-c1ccc2c(c1)CCC1(CC1)C2NC(=O)O[C@@H]1CN2CCC1CC2 (stereo partly drawn) [Example 212, (S)-quinuclidin-3-yl (6′-(2,6-dimethoxyphenyl)-3′,4′-dihydro-1′H-spiro[cyclopropane-1,2′-naphthalen]-1′-yl)carbamate] | 221 nM | 104 nM | –

Row | Compound | IC50 (GM1 production; Homo sapiens, Jurkat, 72 h) | IC50 [1] | IC50 (GM1 production; read-out: IC50)
17 | CCOc1ccc(-c2ccc3c(c2)CCC2(CC2)C3NC(=O)O[C@@H]2CN3CCC2CC3)cc1 (stereo partly drawn) [Example 217, (S)-quinuclidin-3-yl (6′-(4-ethoxyphenyl)-3′,4′-dihydro-1′H-spiro[cyclopropane-1,2′-naphthalen]-1′-yl)carbamate] | 15.8 nM | 1.01 nM | –
18 | O=C(NC1CCCc2cc(-c3ccc(Cl)c(Cl)c3)ccc21)O[C@@H]1CN2CCC1CC2 (stereo partly drawn) [Example 22, (S)-quinuclidin-3-yl (6-(3,4-dichlorophenyl)-1,2,3,4-tetrahydronaphthalen-1-yl)carbamate] | 22.5 nM | 8.42 nM | –
19 | CC(C)c1cccc(-c2ccc3c(c2)CCC2(CC2)C3NC(=O)O[C@@H]2CN3CCC2CC3)c1 (stereo partly drawn) [Example 205, (S)-quinuclidin-3-yl (6′-(3-isopropylphenyl)-3′,4′-dihydro-1′H-spiro[cyclopropane-1,2′-naphthalen]-1′-yl)carbamate] | 44.3 nM | 34.2 nM | –
20 | CC1(C)CCc2cc(-c3ccc(OC(F)F)cc3)ccc2C1NC(=O)O[C@@H]1CN2CCC1CC2 (stereo partly drawn) [Example 99, (S)-quinuclidin-3-yl (6-(4-(difluoromethoxy)phenyl)-2,2-dimethyl-1,2,3,4-tetrahydronaphthalen-1-yl)carbamate] | 2.56 nM | 1.65 nM | –
21 | COc1cccc(-c2ccc3c(c2)C(NC(=O)O[C@@H]2CN4CCC2CC4)CCC3)c1 (stereo partly drawn) [Example 77, (S)-quinuclidin-3-yl (7-(3-methoxyphenyl)-1,2,3,4-tetrahydronaphthalen-1-yl)carbamate] | 197 nM | 74.9 nM | –
22 | CC(C)Cc1ccc(-c2cc3c(cc2F)C(NC(=O)O[C@@H]2CN4CCC2CC4)C(C)(C)CC3)cc1 (stereo partly drawn) [Example 230, (S)-quinuclidin-3-yl (7-fluoro-6-(4-isobutylphenyl)-2,2-dimethyl-1,2,3,4-tetrahydronaphthalen-1-yl)carbamate] | 1.8 nM | 0.3 nM | –
23 | O=C(NC1c2cc(-c3ccccc3F)ccc2CCC12CC2)O[C@@H]1CN2CCC1CC2 (stereo partly drawn) [Example 179, (S)-quinuclidin-3-yl (7′-(2-fluorophenyl)-3′,4′-dihydro-1′H-spiro[cyclopropane-1,2′-naphthalen]-1′-yl)carbamate] | 115 nM | 10 nM | –
24 | O=C(NC1CCCc2ccc(-c3ccccc3F)cc21)O[C@@H]1CN2CCC1CC2 (stereo partly shown) [Example 61] | – | 8.48 nM | 61.9 nM
25 | O=C(NC1c2cc(-c3cccc(C(F)(F)F)c3)ccc2CCC12CC2)O[C@@H]1CN2CCC1CC2 (stereo partly drawn) [Example 177, (S)-quinuclidin-3-yl (7′-(3-(trifluoromethyl)phenyl)-3′,4′-dihydro-1′H-spiro[cyclopropane-1,2′-naphthalen]-1′-yl)carbamate] | 170 nM | 23.5 nM | –
26 | CCCOc1c(C)cc(-c2cc3c(cc2OC)C(NC(=O)O[C@@H]2CN4CCC2CC4)C(C)(C)CC3)cc1C (stereo partly drawn) [Example 234, (S)-quinuclidin-3-yl (6-(3,5-dimethyl-4-propoxyphenyl)-7-methoxy-2,2-dimethyl-1,2,3,4-tetrahydronaphthalen-1-yl)carbamate] | 14.9 nM | 1.45 nM | –
27 | CC1(C)CCc2cc(-c3ccccc3Cl)ccc2C1NC(=O)O[C@@H]1CN2CCC1CC2 (stereo partly drawn) [Example 95, (S)-quinuclidin-3-yl (6-(2-chlorophenyl)-2,2-dimethyl-1,2,3,4-tetrahydronaphthalen-1-yl)carbamate] | 0.123 nM | 0.85 nM | –
28 | COc1ccc(-c2ccc3c(c2)CCC2(CC2)C3NC(=O)O[C@@H]2CN3CCC2CC3)cc1F (stereo partly drawn) [Example 202, (S)-quinuclidin-3-yl (6′-(3-fluoro-4-methoxyphenyl)-3′,4′-dihydro-1′H-spiro[cyclopropane-1,2′-naphthalen]-1′-yl)carbamate] | 24.4 nM | 1.16 nM | –
29 | O=C(NC1CCCc2cc(-c3ccc(F)cc3)ccc21)O[C@@H]1CN2CCC1CC2 (stereo partly drawn) [Example 1, (S)-quinuclidin-3-yl (6-(4-fluorophenyl)-1,2,3,4-tetrahydronaphthalen-1-yl)carbamate] | 62.6 nM | 6.78 nM | –
30 | Cc1ccc(-c2ccc3c(c2)C(NC(=O)O[C@@H]2CN4CCC2CC4)CCC3)cc1 (stereo partly drawn) [Example 57, (S)-quinuclidin-3-yl (7-(p-tolyl)-1,2,3,4-tetrahydronaphthalen-1-yl)carbamate] | 81.2 nM | 23.4 nM | –
31 | O=C(NC1CCCc2cc(-c3ccc4c(c3)OC(F)(F)O4)ccc21)O[C@@H]1CN2CCC1CC2 (stereo partly drawn) [Example 42, (S)-quinuclidin-3-yl (6-(2,2-difluorobenzo[d][1,3]dioxol-5-yl)-1,2,3,4-tetrahydronaphthalen-1-yl)carbamate] | 210 nM | 6.71 nM | –
32 | CC1(C)CCc2cc(-c3ccc(Cl)cc3)ccc2C1NC(=O)O[C@@H]1CN2CCC1CC2 (stereo partly drawn) [Example 87, (S)-quinuclidin-3-yl (6-(4-chlorophenyl)-2,2-dimethyl-1,2,3,4-tetrahydronaphthalen-1-yl)carbamate] | 19.5 nM | 6 nM | –
